From patent publication US20240208895A1, “BRANCHED-CHAIN AMINO ACID DERIVATIVES TO TREAT DISEASE” (INTRABIO LTD., priority 2021, published 2024)
Read-outs that look alike come from different tables or passages of the source. Values belong to the molecule of their own block, whether it stands above or below them.

Legend:
human transporter MCT1 = biological target: T1, human transporter MCT1 (Homo sapiens, UniProt P53985); experiment: Human MCT1-mediated transport in MDCK-II cells (Example 9); format: cell-based; settings: MDCK-II cells expressing human MCT1, pH 5.5, 1 minute, normalized to Vmax of thiophene-2-glyoxylic acid
T1 construct: expressed in transfected cells; host or cells: MDCK-II
T1 sequence (P53985 1-500): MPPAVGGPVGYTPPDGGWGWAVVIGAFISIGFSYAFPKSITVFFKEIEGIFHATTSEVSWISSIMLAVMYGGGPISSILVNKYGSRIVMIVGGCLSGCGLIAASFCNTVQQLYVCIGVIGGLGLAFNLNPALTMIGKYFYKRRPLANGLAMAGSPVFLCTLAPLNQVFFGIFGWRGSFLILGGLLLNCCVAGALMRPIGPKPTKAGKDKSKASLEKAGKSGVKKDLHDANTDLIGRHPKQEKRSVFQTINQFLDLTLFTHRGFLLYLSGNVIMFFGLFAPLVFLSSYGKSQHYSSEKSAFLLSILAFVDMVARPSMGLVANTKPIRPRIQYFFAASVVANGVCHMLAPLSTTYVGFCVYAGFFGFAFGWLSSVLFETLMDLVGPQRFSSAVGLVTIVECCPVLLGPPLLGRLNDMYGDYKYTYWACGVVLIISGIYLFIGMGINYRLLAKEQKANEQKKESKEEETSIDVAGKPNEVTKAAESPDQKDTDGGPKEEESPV
Procedure: Representative Compounds of the Disclosure are tested in (i) MDCK-II cells expressing human transporter MCT1; and (ii) MDCK-II cells transfected with a control vector (GFP) as control cells for human transporter MCT1. 2-Thiophene-glyoxylic acid (TPGA) is the positive control for transport.
• 1. A stock solution is prepared with the test article (Compound of the Disclosure) in DMSO or in HBSS-Bis-Tris. • 2. Final assay solutions of probe substrate or test article contain 0.5% (v/v) DMSO (vehicle control). • 3. Test article concentrations are 10 μM, 30 μM, 100 μM, 300 μM, 1000 μM, 3000 μM, and 10000 μM.
MDCK-II cells are maintained in DMEM with low glucose and 10% FBS. Cells passages up to 40 are seeded at 60K±10K cells/well on 96-well, transwell membrane plates approximately 24 hours before transfection. Transport assays are carried out approximately 48 hours after transfection.
• 1. Test system: • a. Test system: 96-well cell culture plate with wells containing a monolayer of MDCK-II cells grown on a permeable support and a corresponding 96-well receiver tray. Cell plates are maintained at 37° C. in 5% CO2 atmosphere prior to initiation of the transport experiment. • b. Pre-incubation is conducted in HBSS, pH 7.4. Transport experiments are conducted in HBSS with Bis-Tris, pH 5.5, without phenol red. Pre-incubation and incubation are conducted at ambient temperatures. • c. Each condition is run in triplicate wells. • d. […] The result from the control cells is used to correct for substrate permeation by routes other than the transporter being investigated in the study. • 2. Prepare the 96-well plate as follows: • a. Wash the basal side of the culture plate insert with HBSS three times. After the final wash, blot the basal side of the wells and keep this side dry. • b. Wash the culture plate wells with HBSS three times. The wells of the culture plate serve as the apical compartment. • 3. Aspirate the final wash from the culture plate. The wells of the culture plate serve as the apical compartment. Add 100 μL of HBSS pH 7.4 pre-incubation buffer containing vehicle to the apical compartments. • 4. Incubate the plates with orbital shaking at approximately 60 RPM for the pre-incubation time specified in Table 1 of this protocol. • 5. Aspirate the pre-incubation buffer from the apical compartment of the plates. Add 100 μL of the experimental buffer that is prepared as follows and maintained at ambient temperatures. • a. For the probe substrate transport assay, the HBSS with Bis-Tris, pH 5.5 in each well contains the probe substrate at 500 μM (positive control for transport) and vehicle control. • b. For the test article assays, the HBSS with Bis-Tris, pH 5.5 in each well contains the test article at 10 μM, 30 μM, 100 μM, 300 μM, 1000 μM, 3000 μM, and 10000 μM. • 6. Incubate at ambient temperature with orbital shaking at approximately 60 RPM for the incubation time of 1 minute. • 7. […]
• 1. The amount of radiolabeled probe substrate will be quantified with radiometric detection on a 1450 Microbeta (Perkin-Elmer). • 2. The amount of non-radiolabeled probe substrate or test article will be quantified by LC-MS/MS. • 3. […] For uptake assays, the net transporter-mediated uptake rate (V) of the substrate by each SLC transporter will be calculated as follows:
[formula] • 5. For transport kinetics assessment, Km and Vmax will be calculated by non-linear regression using the Michaelis-Menten equation. • 6. […]

[1] = tested on: glycosphingolipid (GSL) biosynthesis; settings: LSDs; cited from earlier work
LAT1 = biological target: T2, LAT1 (Homo sapiens, UniProt Q01650); experiment: LAT1 transporter-mediated cellular uptake (substrate test); format: cell-based; settings: uptake 3 min, 37° C.
T2 construct: expressed in transfected cells
Procedure: DMSO (0.5%) was the solvent control (SC) and the known inhibitor for the positive control (PC) was JPH203 (10 μM). Data were fit to either the Michaelis-Menten equation for uptake or the Hill equation for inhibition using the solvent control to define the top and the positive control inhibitor to define the bottom. Symbols represent the mean±SEM, n=3.
Human OAT1 (SLC22A6) and OAT3 (SLC22A8) overexpressing HEK-293 cells and control cells without transfected transporter (Corning® TransportoCells™) are plated to 24-well plates and cellular uptake of 10 to 100 μg/mL of a Compound of the Disclosure is measured in the absence and presence of transporter inhibitors. Uptake of a Compound of the Disclosure into control cells is measured only without chemical inhibitors. […] Cells are grown in DMEM (Gibco 4196, high glucose, without sodium pyruvate) supplemented with MEM non-essential amino acids and 10% fetal bovine serum. Cells are re-fed with fresh medium after attachment (4-6 hours post-seeding). Cell are plated at a density of 4×10^5/well in 24-well plates coated with poly-D-lysine. Transporter assays are conducted in 400 μL of HBSS supplemented with 10 mM Hepes, pH 7.4
The known probe substrates used as positive controls are 3 μM chlorothiazide for OAT1, 2 μM estrone-3-sulfate for OAT3, 10 μM gabapentin for LAT1, 50 μM Gly-Sar for PepT1, 500 μM thiophene-2-glyoxylic acid for MCT1. […]

[2] = Procedure: (§1) A Compound of the Disclosure is incubated at 1 μM, 10 μM and 100 μM with pooled liver S9 fractions from human (mixed gender) and mouse (CD1) at 1.5 mg/mL in 300 μL buffer containing phosphate 100 mM, MgCl2 2 mM, pH 7.4 at 37° C. for 0, 10, 20, 40, 60 min.
(§2) Enzyme kinetic data for uptake and metabolism of a Compound of the Disclosure is analysed by fitting the Michaelis-Menten equation to the data. V0=Vmax[S]/Km+[S], where V0 is initial velocity, [S] is substrate concentration, Vmax is maximum velocity and Km is substrate concentration at half Vmax. All fitting is performed using GraphPad Prism 8.4 software (GraphPad Software Inc). No weighting scheme is applied.

[3] = remark: listed apart in the source
Procedure: as §1, §2

[4] = biological target: T3, monocarboxylate transporter (MCT1) (Homo sapiens, UniProt P53985); experiment: Inhibition of MCT1 uptake of known substrate 2-thiophene glyoxylate; format: cell-based; parameters: expressed in transfected cells
T3 sequence (P53985 1-500): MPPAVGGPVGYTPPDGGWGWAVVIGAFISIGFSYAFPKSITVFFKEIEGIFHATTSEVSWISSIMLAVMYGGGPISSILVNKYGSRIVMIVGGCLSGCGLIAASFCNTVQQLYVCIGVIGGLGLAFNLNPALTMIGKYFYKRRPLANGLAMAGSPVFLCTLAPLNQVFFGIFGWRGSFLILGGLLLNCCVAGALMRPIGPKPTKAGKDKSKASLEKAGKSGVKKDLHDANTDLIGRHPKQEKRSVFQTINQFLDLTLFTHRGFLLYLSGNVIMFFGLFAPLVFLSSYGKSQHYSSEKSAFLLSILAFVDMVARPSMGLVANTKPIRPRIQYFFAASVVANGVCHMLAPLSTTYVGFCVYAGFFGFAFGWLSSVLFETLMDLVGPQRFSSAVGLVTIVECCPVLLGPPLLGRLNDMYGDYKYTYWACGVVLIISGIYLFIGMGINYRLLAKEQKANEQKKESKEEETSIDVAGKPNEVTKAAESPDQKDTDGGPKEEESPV
Procedure: FIG. 4(c) is a line graph showing concentration-inhibition curves for the inhibition of uptake of the known substrate 2-thiophene glyoxylate (500 μM) for MCT1. DMSO (0.5%) was the solvent control (SC) and the known inhibitor phloretin (500 μM) was the positive control (PC).
FIG. 4(d) is a line graph showing concentration-inhibition curves for the inhibition of uptake of the known substrate 2-thiophene glyoxylate (500 μM) for MCT1. DMSO (0.5%) was the solvent control (SC) and the known inhibitor phloretin (500 μM) was the positive control (PC).
The known probe substrates used as positive controls are 3 μM chlorothiazide for OAT1, 2 μM estrone-3-sulfate for OAT3, 10 μM gabapentin for LAT1, 50 μM Gly-Sar for PepT1, 500 μM thiophene-2-glyoxylic acid for MCT1.
The IC50 value for the test item is determined by fitting the Hill equation in the following form:
where A % is the percent activity remaining (the mean cellular uptake observed in the solvent control sample set to 100% and the mean cellular uptake observed in the presence of the positive control inhibitor set to 0%), Top and Bottom are the upper and lower plateau of A %. [I] is the inhibitor concentration and IC50 is the inhibitor concentration where the remaining activity is at the midpoint between the Top and Bottom.

[5] = substrate: CC(=O)N[C@H](CC(C)C)C(=O)O; experiment: cells, lysate or membranes; settings: other: uptake 1 min, room temperature

T2 sequence (Q01650 whole entry): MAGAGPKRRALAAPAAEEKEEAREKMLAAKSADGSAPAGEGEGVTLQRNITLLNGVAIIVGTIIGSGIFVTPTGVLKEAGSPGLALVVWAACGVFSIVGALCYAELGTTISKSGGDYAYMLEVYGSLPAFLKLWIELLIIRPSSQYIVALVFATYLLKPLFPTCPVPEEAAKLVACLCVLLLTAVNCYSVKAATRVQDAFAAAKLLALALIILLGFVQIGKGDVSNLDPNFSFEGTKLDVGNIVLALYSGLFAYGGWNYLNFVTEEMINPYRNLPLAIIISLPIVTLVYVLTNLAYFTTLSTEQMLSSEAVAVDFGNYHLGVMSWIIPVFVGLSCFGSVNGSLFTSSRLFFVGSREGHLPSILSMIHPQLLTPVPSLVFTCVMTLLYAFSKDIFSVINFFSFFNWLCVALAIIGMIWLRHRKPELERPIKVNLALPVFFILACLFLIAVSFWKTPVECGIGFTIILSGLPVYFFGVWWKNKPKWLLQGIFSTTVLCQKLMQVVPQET
T2 sequence (P08195 102-630 partner): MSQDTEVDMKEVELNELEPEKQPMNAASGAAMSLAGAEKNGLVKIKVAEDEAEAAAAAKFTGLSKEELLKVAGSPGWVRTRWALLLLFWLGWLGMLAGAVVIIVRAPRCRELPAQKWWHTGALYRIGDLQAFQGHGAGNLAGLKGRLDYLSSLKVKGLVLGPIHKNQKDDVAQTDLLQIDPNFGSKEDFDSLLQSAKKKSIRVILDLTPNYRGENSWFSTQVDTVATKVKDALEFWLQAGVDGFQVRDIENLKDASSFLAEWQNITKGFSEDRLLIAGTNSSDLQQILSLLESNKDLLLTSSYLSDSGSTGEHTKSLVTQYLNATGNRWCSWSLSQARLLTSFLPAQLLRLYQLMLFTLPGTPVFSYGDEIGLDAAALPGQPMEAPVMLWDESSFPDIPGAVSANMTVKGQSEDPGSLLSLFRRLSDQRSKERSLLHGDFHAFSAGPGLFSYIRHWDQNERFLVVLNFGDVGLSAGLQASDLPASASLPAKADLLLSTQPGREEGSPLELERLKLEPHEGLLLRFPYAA

Molecule: CCC(=O)N[C@H](C(=O)O)C(C)C [N-propionyl-L-valine]
uptake mediated by MCT1 (human transporter MCT1): transported

Molecule: COC(=O)[C@@H](NC(C)=O)C(C)C [N-acetyl-L-valine methyl ester]
uptake mediated by MCT1 (human transporter MCT1): greatly reduced transport

Molecule: CCCCN1C[C@H](O)[C@@H](O)[C@H](O)[C@H]1CO [miglustat]
benefit in clinical trial of substrate reduction therapy [1]: Some benefit

Molecule: [2H]C([2H])([2H])C([2H])(C([2H])([2H])[2H])C([2H])([2H])C([2H])(NC(C)=O)C(=O)O (racemic) [N-acetyl-DL-[^2H10]leucine]
Vmax, metabolism [2]: 6.8 µmol/min/mg
disappearance, asymptote as % of the initial concentration [2]: ~50%
Vmax, metabolism [3]: 2.6 µmol/min/mg
disappearance, asymptote as % of the initial concentration [3]: ~50%

Molecule: CCC(=O)N[C@H](C(=O)O)[C@@H](C)CC [N-propionyl-L-isoleucine]
uptake mediated by MCT1 (human transporter MCT1): transported

B1: monocarboxylate transporter (MCT1) (Homo sapiens) (protein)
chain: MPPAVGGPVGYTPPDGGWGWAVVIGAFISIGFSYAFPKSITVFFKEIEGIFHATTSEVSWISSIMLAVMYGGGPISSILVNKYGSRIVMIVGGCLSGCGLIAASFCNTVQQLYVCIGVIGGLGLAFNLNPALTMIGKYFYKRRPLANGLAMAGSPVFLCTLAPLNQVFFGIFGWRGSFLILGGLLLNCCVAGALMRPIGPKPTKAGKDKSKASLEKAGKSGVKKDLHDANTDLIGRHPKQEKRSVFQTINQFLDLTLFTHRGFLLYLSGNVIMFFGLFAPLVFLSSYGKSQHYSSEKSAFLLSILAFVDMVARPSMGLVANTKPIRPRIQYFFAASVVANGVCHMLAPLSTTYVGFCVYAGFFGFAFGWLSSVLFETLMDLVGPQRFSSAVGLVTIVECCPVLLGPPLLGRLNDMYGDYKYTYWACGVVLIISGIYLFIGMGINYRLLAKEQKANEQKKESKEEETSIDVAGKPNEVTKAAESPDQKDTDGGPKEEESPV
Km [5]: 1000 µM

The next lines start with the values.

substrate of LAT1 (uptake) (LAT1): neither a substrate
Molecule: CC(=O)N[C@@H](CC(C)C)C(=O)O [N-acetyl-leucine]

Ki ([4]; assuming competitive inhibition, read-out: affinity (Ki) for MCT1, Cheng-Prusoff equation): 1.6 mM
IC50 ([4]; probe substrate 2-thiophene glyoxylate 500 μM): 11 mM
Molecule: CC(=O)N[C@H](CC(C)C)C(=O)O [N-acetyl-D-leucine]

uptake mediated by MCT1 (human transporter MCT1): greatly reduced transport
Molecule: COC(=O)[C@H](CC(C)C)NC(C)=O [N-acetyl-L-leucine methyl ester]
